Test results reported in PubChem BioAssay AID743417 (Broad Institute, 2014).
Inconclusive results are not listed.

These compounds were tested on Clone20 osteoblast Shn3 3'UTR firefly luciferase, 24 h (assay: Schnurri-3 3'UTR-luciferase signal suppressors – cell-based, Clone20 osteoblasts, luminescence, dry powder, set 2, dose response (AID 743417)).

Row | SMILES | AC50
1 | CN(Cc1ccc(OC(F)F)cc1)C(=O)c1cccc(S(=O)(=O)N2CCN(c3ccccc3)CC2)c1 | 2.59 µM
2 | CCCCCCCSc1cc(OC)c(CCNC)cc1OC | 10.6 µM
3 | COCCN1Cc2cccc(C(=O)Nc3ccc4c(c3)OCCO4)c2C1=O | 27.1 µM
4 | CC(C)c1ccc(NC(=O)Nc2nc(C(N)COCc3ccccc3)cs2)cc1 (centres undefined) | 5.99 µM
5 | COc1ccc(C2/C=C\CN(S(=O)(=O)c3ccc(C)cc3)[C@H](Cc3ccccc3)C(=O)N2Cc2ccc(F)cc2)cc1 (some centres undefined) | 12.9 µM
6 | Cc1ccc(Nc2nc(NCc3ccco3)c3ccccc3n2)cc1 | 9.84 µM
7 | CCN(CC)Cc1c(O)ccc2c1O/C(=C\C=C\c1ccccc1)C2=O | 1.96 µM
8 | COc1ccc(OCC(=O)NNC(=S)NC(=O)c2ccc(Br)o2)cc1 | 5.27 µM
9 | Cc1ccc(NS(=O)(=O)c2ccc(C(=O)NC3CCN(Cc4ccccc4)CC3)cc2)cc1 | 4.69 µM
10 | CCOC(=O)N1CCC(NC(=O)C2CCCN(Cc3nc(-c4cccc(Cl)c4)oc3C)C2)CC1 (centres undefined) | 9.5 µM
11 | COc1ccc(CCN2C(=O)CSC2=Nc2ccc(C(C)C)cc2)cc1OC | 4.49 µM
12 | Cc1ccc(CS(=O)(=O)c2ncc(Cl)c(C(=O)Nc3nnc(C(C)C)s3)n2)cc1 | 1.52 µM
13 | C#CCN(C[C@@H]1[C@@H](OC(=O)NC2CCCC2)[C@@H](OC(=O)NC2CCCC2)Cn2c(=O)ccc(=O)n21)S(=O)(=O)c1ccc(C)cc1 | 12.9 µM
14 | O=C(O)c1cccc(COc2ccccc2Cl)c1 | 1.48 µM
15 | NC(=O)CC(NC(=O)c1ccc(Br)cc1)c1ccc(N2CCCCCC2)c([N+](=O)[O-])c1 (centres undefined) | 7.66 µM
16 | COc1cccc(C(NC(C)=O)c2ccc3cccnc3c2O)c1 (centres undefined) | 1.39 µM
17 | CC[n+]1c(/C=C/Nc2ccccc2)sc2ccccc21 | 2.06 µM
18 | COc1ccc(CNCCC(c2ccc(OC(C)C)cc2)c2ccccc2OC)cc1 (centres undefined) | 3.86 µM
19 | Cc1cccc(N2CCN(C(=O)CSCc3c(C)noc3C)CC2)c1C | 2.41 µM
20 | CN(CC(=O)Nc1ccccc1Cl)C(=O)c1cccc(S(=O)(=O)N2CCN(Cc3ccccc3)CC2)c1 | 3.47 µM
21 | CC(=O)NC(c1ccc(C)cc1)c1cc(Cl)c2cccnc2c1O (centres undefined) | 2.12 µM
22 | Cc1nc2ccccc2c2oc(C(=O)N3CCN(C4CCCCC4)CC3)cc12 | 7.02 µM
23 | CCCCC1(Cc2ccc([N+](=O)[O-])cc2)C(=O)N(c2ccccc2)N(c2ccccc2)C1=O | 10.2 µM
24 | Cc1ccc(NC(=O)c2nc(S(=O)(=O)Cc3ccccc3C)ncc2Cl)cc1C | 0.486 µM
25 | CC1(c2ccc3ccccc3c2)NC(=O)N(CC(=O)N2CCN(Cc3ccc(C#N)cc3)CC2)C1=O (centres undefined) | 0.416 µM
26 | CC(=O)NC(c1ccc(C(C)C)cc1)c1ccc2cccnc2c1O (centres undefined) | 0.528 µM

Row | SMILES | AC50
27 | CCCCCCCCNC(C)C(O)c1ccc(SC(C)C)cc1 (centres undefined) | 3.94 µM
28 | C=C1CC(Cn2cc(Br)c(=O)[nH]c2=O)(c2ccc(-c3ccccc3)cc2)OC1=O (centres undefined) | 2.67 µM
29 | CCC(CC)CC1CN2CCc3cc(OC)c(OC)cc3C2CC1(O)CC (centres undefined) | 2 µM
30 | CSc1nnc(NC(=O)c2nc(S(=O)(=O)Cc3ccccc3F)ncc2Cl)s1 | 1.55 µM
31 | O=C(Nc1nc(-c2ccccn2)cs1)c1ccc(Br)s1 | 1 µM
32 | C=CCn1c(-c2ccc(S(=O)(=O)N3CCOCC3)cc2)csc1=Nc1ccccc1 | 1.52 µM
33 | Cn1c(COc2ccc(Br)cc2)nnc1SC1CCc2ccccc2C1=O (centres undefined) | 35.2 µM
34 | CCN(c1ccccc1)S(=O)(=O)c1ccc(Cl)c(NC(=O)CN(C)Cc2cccc(F)c2)c1 | 8.78 µM
35 | O=C(NCc1ccc2c(c1)OCO2)c1nc(S(=O)(=O)Cc2ccccc2)ncc1Cl | 6.4 µM
36 | CC(=O)OCC(=O)[C@@]1(O)CC[C@H]2[C@@H]3CCC4=CC(=O)CC[C@]4(C)[C@H]3C(=O)C[C@@]21C | 28.3 µM
37 | Oc1cccc2cc(Nc3ccccc3)cnc12 | 0.644 µM
38 | Cc1ccc(-n2nnnc2C(Cl)(Cl)c2nnnn2-c2ccc(C)cc2)cc1 | 4.71 µM
39 | O=C(Nc1ccc(N2CCOCC2)cc1)c1ccc(Cl)c(S(=O)(=O)N2CCCCC2)c1 | 0.81 µM
40 | CC(=O)NC(c1cccs1)c1cc(F)c2cccnc2c1O (centres undefined) | 1.67 µM
41 | COc1cc(CN2CCc3ccccc3C2)ccc1O | 0.912 µM
42 | O=C(Nc1ccc(Cc2ccncc2)cc1)c1ccc([N+](=O)[O-])o1 | 2.71 µM
43 | Cc1oc(=O)c(NC(=O)c2ccc(Cl)cc2)cc1C(=O)c1ccccc1 | 32.1 µM
44 | CCOc1ccc(-n2c(-c3ccccc3)c[n+]3c2CCC3)cc1 | 0.526 µM
45 | CC[C@H](C)C(=O)O[C@H]1C[C@@H](C)C=C2C=C[C@H](C)[C@H](CC[C@@H]3C[C@@H](O)CC(=O)O3)[C@H]21 | 1.62 µM
46 | Cc1ccc(CC(=O)Nc2ccncc2)cc1 | 2.39 µM
47 | O=C(Nc1ccc(F)c(F)c1)c1ccc(F)c(S(=O)(=O)N2CCC3(CC2)OCCO3)c1 | 12.2 µM
48 | CC(C)c1ccc(NC(=O)Nc2nc(C(N)CCc3ccccc3)cs2)cc1 (centres undefined) | 5.36 µM
49 | COc1cc(C)c(NC(=O)COc2cccc3c2OC(C)(C)C3)cc1OC | 7.06 µM
50 | CC(C)(CNC(=O)c1ccc(Cl)c(S(=O)(=O)N2CCc3ccccc3C2)c1)N1CCOCC1 | 10.5 µM
51 | C=C1CC(COc2ccc3c(C)c(Cl)c(=O)oc3c2)(c2ccccc2)OC1=O (centres undefined) | 4.82 µM
52 | c1ccc(Nc2nc(NCC3CCCO3)c3ccccc3n2)cc1 (centres undefined) | 21.7 µM

Row | SMILES | AC50
53 | COc1ccccc1-c1cc(C(F)(F)F)nc(S(=O)(=O)CCCC(=O)Nc2cc(C)on2)n1 | 6.57 µM
54 | O=C(Nc1nc2ccccc2s1)C1CCN(S(=O)(=O)c2cc([N+](=O)[O-])ccc2Cl)CC1 | 3.07 µM
55 | Cc1ccc(NC(=O)C2CCN(S(=O)(=O)c3ccc4c(c3)NC(=O)C(C)S4)CC2)cc1Cl (centres undefined) | 2.83 µM
56 | O=S(=O)(/C(=C\c1ccc(C(F)(F)F)cc1)c1nc2ccccc2[nH]1)c1ccccc1 | 1.85 µM
57 | Fc1ccc(-n2nnnc2-c2cnc(-c3cccs3)nc2C(F)(F)F)cc1 | 4.44 µM
58 | CCN(CC)S(=O)(=O)c1ccc(-c2ccc(S(=O)(=O)N(CC)CC)cc2)cc1 | 3.81 µM
59 | CCN(CC)C(=O)C1CCN(S(=O)(=O)c2ccc3oc4ccccc4c3c2)CC1 | 3.96 µM
60 | Cc1ccc(S(=O)(=O)N2C[C@@H]3CCCC[C@@H]3[C@@H](C)[C@H]2c2cn(Cc3ccccc3)c3ncccc23)cc1 | 1.92 µM
61 | O=C(NNC(=O)C(c1ccccc1)c1ccccc1)c1ccccn1 | 2.87 µM
62 | COc1cnc(-c2ccccn2)nc1NC(C)C | 2.81 µM
63 | CN(Cc1ccc(OC(F)F)cc1)C(=O)c1cccc(S(=O)(=O)N2CCN(Cc3ccccc3)CC2)c1 | 2.37 µM
64 | CCCC(=O)OCCNc1cc(Sc2nccn2C)c2nonc2c1[N+](=O)[O-] | 7.22 µM
65 | Cc1ccc(S(=O)(=O)c2ccc([N+](=O)[O-])cn2)cc1 | 3.85 µM
66 | C[C@H](NC(=O)c1ncn2c1c(=O)[nH]c1ccc(Br)cc12)c1ccccc1 | 8.76 µM
67 | CCCCC(=O)NC(c1ccc(N(CC)CC)cc1)c1ccc2cccnc2c1O (centres undefined) | 1.12 µM
68 | COc1ccc(-c2nc(-c3ccc(NC(=O)c4ccncc4)cc3)no2)cc1OC | 2.36 µM
69 | COc1ccccc1-c1cc(C(F)(F)F)nc(S(C)(=O)=O)n1 | 4.06 µM
70 | CCN(CC)S(=O)(=O)c1cccc(NC(=O)CNc2cccc(S(=O)(=O)N3CCOCC3)c2)c1 | 0.865 µM
71 | C=C(C)C(=O)O[C@H]1C/C(C)=C\C(=O)/C=C(\C)[C@H](O)[C@@H]2OC(=O)C(=C)[C@@H]21 | 3.02 µM
72 | Cn1c(/C=C/c2ccc(Cl)cc2Cl)c([N+](=O)[O-])c(=O)n(C)c1=O | 6.87 µM
73 | Cc1cccc(CS(=O)(=O)c2ncc(Cl)c(C(=O)NCc3ccc4c(c3)OCO4)n2)c1 | 0.938 µM
74 | O=C(C1CCC(CNS(=O)(=O)c2cccs2)CC1)N1CCN(c2ccc(Cl)cc2)CC1 (centres undefined) | 1.61 µM
75 | CCCCCn1c(N2CCN(c3cccc(Cl)c3)CC2)nc2c1c(=O)[nH]c(=O)n2C | 21.8 µM
76 | COC(=O)c1ccccc1NC(=S)N(Cc1ccc2c(c1)OCO2)Cc1cc2cc(OC)ccc2[nH]c1=O | 10.4 µM
77 | Cc1cc2cc(CN(CC3CCCO3)C(=S)Nc3ccccc3)c(=O)[nH]c2cc1C (centres undefined) | 2.91 µM
78 | CN1OC[C@@H]2CN[C@H](c3ccc(-c4cc5ccccc5o4)cc3)C[C@@H]21 | < 0.26 µM

Row | SMILES | AC50
79 | COc1ccccc1N1CCN(C(=O)C2CCCN(S(=O)(=O)c3ccc4c(c3)CCCN4C(C)=O)C2)CC1 (centres undefined) | 2.68 µM
80 | CCCC(=O)NC(c1ccccc1)c1ccc2cccnc2c1O (centres undefined) | 1.99 µM
81 | CC(=O)c1ccc(N2CCC(c3cc(-c4ccc(Cl)cc4)n[nH]3)CC2)c([N+](=O)[O-])c1 | 5 µM
82 | CCCC(c1nnnn1Cc1ccc(OC)cc1)N1CCN(c2ccccc2)CC1 (centres undefined) | 31.9 µM
83 | COc1ccc(NC(=O)Cn2nnc(-c3ccccc3NS(=O)(=O)c3ccccc3)n2)cc1 | 0.485 µM
84 | CCn1c(C)nc2cc(-c3nnc(-c4c(-c5ccccc5)noc4C)o3)ccc21 | 5.82 µM
85 | Oc1c(CN2CCN(c3ccc(F)cc3)CC2)cc(Cl)c2cccnc12 | 1.32 µM
86 | CCc1cc2c(N3CCN(c4ccccc4)CC3)ncnc2s1 | 6.18 µM
87 | Cc1csc(NC(=O)Cc2nn(C)c(=O)c3ccccc23)n1 | 6.82 µM
88 | O=C1OC[C@H](Cc2ccc3c(c2)OCO3)/C1=C\c1ccc2c(c1)OCO2 | 2.66 µM
89 | O=C(/C=C/Sc1ncn[nH]1)c1ccc(Cl)cc1 | 9.76 µM
90 | CC1CCN(Cc2ccc(-c3nnn(CC(=O)Nc4ccccc4Cl)n3)cc2)CC1 | 1.77 µM
91 | CCc1ccc(CN(C)C(=O)c2cc(COc3cccc4cnccc34)on2)cc1 | 1.92 µM
92 | COc1ccc(NS(=O)(=O)c2ccc(C(=O)N3CCCCCC3)cc2)cc1 | 4.51 µM
93 | COc1ccccc1CNc1nc(NCc2ccccc2OC)c2sccc2n1 | 6.33 µM
94 | COc1cc(NC(=O)COc2cccc3c2OC(C)(C)C3)cc(OC)c1OC | 4.38 µM
95 | Cc1ccccc1C(=O)N1CCN(c2ccc(NC(=O)c3ccc([N+](=O)[O-])o3)cc2)CC1 | 0.864 µM
96 | CS(=O)(=O)c1nc(-c2ccccc2)cc(C(F)(F)F)n1 | 1.53 µM
97 | Cc1cccc(/C=C(\c2nc3ccccc3[nH]2)S(=O)(=O)c2ccccc2)c1 | 4.5 µM
98 | O=C(Cc1ccc(Cl)cc1Cl)Nc1ccncc1 | 2.56 µM
99 | CN(CCOc1ccc(Cl)cc1)C(=O)c1cccc(S(=O)(=O)N2CCN(Cc3ccccc3)CC2)c1 | 2.29 µM
100 | Cc1onc(-c2ccccc2Cl)c1C(=O)N1CCC(Cc2ccccc2)CC1 | 2.29 µM
101 | O=C(c1ccc(Br)cc1)C(CN1CCOCC1)c1ccccc1 (centres undefined) | 9.4 µM
102 | O=c1oc2ccccc2cc1-c1cn2ccccc2n1 | 3.64 µM
103 | O=C(Nc1ccc([N+](=O)[O-])cc1)Nc1ccc(OC(F)F)c(Cl)c1 | 3.59 µM
104 | CCOC(=O)c1oc2ccc(S(=O)(=O)n3nc(-c4ccccc4)cc3N)cc2c1C | 0.854 µM
